# In patent publication US11986482B2, “Method of promoting antitumor or anti-cancer immunity” (City University of Hong Kong, priority 2021, dated 2024):
# “Also recorded” adds a separate entry of the source.
# Legend:
# Raw246.7 cells = assay: Chemokine level in supernatant of Raw246.7 cells; format: cell-based; settings: in vitro, 1 μM
# PD-L1 = assay: Plasma membrane PD-L1 level in HeLa cells (flow cytometry, confocal imaging); format: cell-based; settings: 1 μM, 24 h
# Description: Next, inventors assess if 6J1 can compromise PD-L1 trafficking. PDL1-GFP stable expressing HeLa cells are treated with or without 6J1 (1 μM) for 24 h. Cells are fixed and stained with Rab5 or EEA1. Their quantifications of the colocalization are shown in FIGS. 4d and 4e, respectively. […] Inventors thus further quantify cell membrane PD-L1 levels in live cells treated with or without 6J1 by flow cytometry or confocal imaging.
# Moreover, ATG5- or LC3-knockout HeLa cells are treated with or without 6J1 (1 μM) for 24 h. The supernatant is collected, and the concentration of the extracellular vesicle is determined using a Nanosight nanoparticle analyzer. The exosomes are also collected and subjected to western blot analysis of the EVs marker and PD-L1 in FIG. 7a. The live cells are also labeled with an anti-PD-L1 antibody in FIG. 7b and subjected to flow cytometry analysis in FIG. 7c. […] In addition, inventors assess whether other autophagy-related genes, e.g., ATG4B, ATG7, Beclin1, and Vps34 are involved in 6J1-mediated exosomal PD-L1 secretion. ATG4B-, ATG7-, Beclin1-, or VPS34-knockout HeLa cells are treated with or without 6J1 (1 μM) for 24 h. The supernatant is collected, and the concentration of extracellular vesicle is determined using a Nanosight nanoparticle analyzer. The exosomes are also collected and subjected to western blot analysis of the EVs marker and PD-L1 in FIG. 7d. The live cells are also labeled with an anti-PD-L1 antibody and subjected to flow cytometry analysis in FIG. 7e.
# [1] = system: Rab27a-knockout 4T1 cells; assay: 4T1-shRab27A (Rab27a-knockout) orthotopic tumors in Balb/c mice; format: in vivo, mouse
# Description: Therefore, it is possible that the increased exosomal PD-L1 secretion induced by 6J1 may still suppress the tumor-infiltrating T cell cytotoxicity in vivo, even though 6J1 reduces the cell surface expression level of PD-L1 on the tumor cells. To evaluate the role of exosomal PD-L1 in the tumor microenvironment and tumor progression in mice, inventors knock out Rab27a in 4T1 cells to inhibit the secretion of exosomes. 4T1-shNC or 4T1-shRab27A cells are treated with or without 6J1 (1 μM). The supernatant is collected, and the concentration of extracellular vesicle is determined using a Nanosight nanoparticle analyzer. […] Inventors analyze the plasma membrane levels of PD-L1 in 4T1-shNC or 4T1-shRab27A cells treated with or without 6J1 (1 μM). […] Next, control or Rab27a-knockout 4T1 cells are orthotopically transplanted into syngeneic fat pads of female Balb/c. The mice are randomly divided (n=5 per group) and treated with either buffer or 6J1 (30 mg/kg, daily) via oral gavage. […] Inventors also perform the immunostaining of CD8 and Granzyme B in the tumor sections. […] Since enhanced antitumor immunity leads to increased apoptosis in tumors, inventors assess the levels of cleaved caspase3 (CCA3), one of the markers of apoptosis, in tumor sections as well.
# [2] = Repeated-dose oral gavage toxicity in rats, up to 7 days; settings: rat, in vivo
# Description: Inventors also evaluate the toxicity profile following oral gavage administration of 6J1 at dose levels of 0 (vehicle), 150, 450, and 1000 mg/kg once daily for up to 7 consecutive days to rats. Rats of the 300 mg/kg group are tested separately from other groups (showing higher initial weight than other groups), and rats of 450 and 1000 mg/kg groups are terminated on day 4 due to several clinical findings.
# PD-L1-knockout 4T1 cells = assay: PD-L1-knockout 4T1 tumors in Balb/c mice; format: in vivo, mouse; settings: 30 mg/kg, daily, oral gavage
# Description: To assess whether the in vivo antitumor growth effect of 6J1 is related to its effect on PD-L1 in 4T1 cells, inventors knock out PD-L1 via CRISPR/Cas9 in 4T1 cells (FIG. 10a). 4T1-NC or 4T1-PD-L1 knockout cells are treated with or without 6J1 (1 μM) for 24 h. The supernatant is collected, and the concentration of extracellular vesicle is determined using a Nanosight nanoparticle analyzer. The exosomes are also collected and subjected to western blot analysis of the EVs marker and PD-L1. […] Inventors then transplant control or PD-L1-knockout 4T1 cells into the fat pad of syngeneic female Balb/c mice. The mice are randomly divided (n=5 per group) and treated with either buffer or 6J1 (30 mg/kg, daily) via oral gavage.
# 4T1 primary tumors = assay: Chemokine levels in microenvironment of 4T1 primary tumors; format: in vivo, mouse; settings: 4T1 tumors isolated at end of experiment
# Description: Inventors further measure the chemokines or cytokines in these primary tumor tissues. The tumors are isolated at the end of experiments, and the chemokine levels in the microenvironment of 4T1 primary tumors treated with the vehicle or 6J1 are determined by Flow cytometry-based quantification. In FIGS. 9a-9c, data are reported in μg/ml, standardized to the excised tumor weight (in grams); each dot represents one mouse.
# [3] = Rab27a-knockout 4T1 cells, 6J1 30 mg/kg, daily, oral gavage
# [4] = Rab27a-knockout 4T1 cells, 6J1 30 mg/kg, daily, oral gavage, 30 mg/kg
smiles,measurement,setting,value
OCCOCCN(c1ccccc1)c1nc(N/N=C/c2cccc(I)c2)nc(N2CCOCC2)n1 [Compound 6J1],secretion of various chemokines from Raw246.7 cells,Raw246.7 cells,markedly induces the secretion of various chemokines
same,6J1-mediated decrease in the level of PD-L1 at the cell surface,"PD-L1; ATG4B-, ATG7-, Beclin1- or VPS34-knockout HeLa cells",does not affect
same,6J1-induced decrease in the level of PD-L1 at the cell surface,PD-L1; ATG5- or LC3B-knockout HeLa cells,Neither ATG5 nor LC3B knockout impairs
same,expression of PD-L1 on the surface of cells,PD-L1; HeLa cells,significantly reduces the expression of PD-L1 on the surface of cells
same,activated tumor-infiltrating CD8+ T cell population and expression of IFN-γ vs other groups,[1]; [3],significantly increased
same,tumor growth and tumor burden vs other groups,[1]; [3],significantly smaller
same,cleaved caspase3 (CCA3) apoptotic signals in tumors vs other groups,[1]; [4],Stronger clustered apoptotic signals
same,infiltrated CD8+ T cells in tumor sections (immunostaining) vs other groups,[1]; [4],More infiltrated CD8+ T cells are detected; also recorded: more infiltrated CD8^+ T cells are detected
same,overall survival of mice bearing orthotopic 4T1 tumors vs other groups,[1]; combination of Rab27a knockout and 6J1 treatment,substantially prolongs the overall survival
same,findings at 450 and 1000 mg/kg,[2],severe clinical findings
same,therapeutic window in experimental animals,[2],at least 10 fold
same,clinical signs at 300 mg/kg,"[2]; po, 300 mg/kg","soft feces, hunched posture, and reduced feces"
same,finding at 1000 mg/kg,"[2]; po, 1000 mg/kg",mortality
same,dose levels not tolerated on repeated daily dosing,"[2]; po, 4 days",≥ 450 mg/kg
same,repeated daily dosing considered tolerated up to,"[2]; po, 7 days",up to 300 mg/kg
same,tumor growth in mice implanted with PD-L1-knockout 4T1 cells,PD-L1-knockout 4T1 cells,fails to decrease further tumor growth
same,"secretion of chemokines CCL2, CCL3, CCL4, CXCL9 in tumor microenvironment",4T1 primary tumors,significantly increases the secretion of some chemokines
same,"secretion of chemokines CCL5, CCL11, CCL17, CCL22, CXCL1, CXCL5, CXCL10, CXCL13 in tumor microenvironment",4T1 primary tumors,little or only subtle effects on others; also recorded: little or only subtly effects on others
